One data set has as its target T1, human TLR8 (Homo sapiens, UniProt Q9NR97).
T1 construct: host or cells: HEK293-Blue-hTLR-8 (HEK293)
T1 sequence (Q9NR97 27-1041): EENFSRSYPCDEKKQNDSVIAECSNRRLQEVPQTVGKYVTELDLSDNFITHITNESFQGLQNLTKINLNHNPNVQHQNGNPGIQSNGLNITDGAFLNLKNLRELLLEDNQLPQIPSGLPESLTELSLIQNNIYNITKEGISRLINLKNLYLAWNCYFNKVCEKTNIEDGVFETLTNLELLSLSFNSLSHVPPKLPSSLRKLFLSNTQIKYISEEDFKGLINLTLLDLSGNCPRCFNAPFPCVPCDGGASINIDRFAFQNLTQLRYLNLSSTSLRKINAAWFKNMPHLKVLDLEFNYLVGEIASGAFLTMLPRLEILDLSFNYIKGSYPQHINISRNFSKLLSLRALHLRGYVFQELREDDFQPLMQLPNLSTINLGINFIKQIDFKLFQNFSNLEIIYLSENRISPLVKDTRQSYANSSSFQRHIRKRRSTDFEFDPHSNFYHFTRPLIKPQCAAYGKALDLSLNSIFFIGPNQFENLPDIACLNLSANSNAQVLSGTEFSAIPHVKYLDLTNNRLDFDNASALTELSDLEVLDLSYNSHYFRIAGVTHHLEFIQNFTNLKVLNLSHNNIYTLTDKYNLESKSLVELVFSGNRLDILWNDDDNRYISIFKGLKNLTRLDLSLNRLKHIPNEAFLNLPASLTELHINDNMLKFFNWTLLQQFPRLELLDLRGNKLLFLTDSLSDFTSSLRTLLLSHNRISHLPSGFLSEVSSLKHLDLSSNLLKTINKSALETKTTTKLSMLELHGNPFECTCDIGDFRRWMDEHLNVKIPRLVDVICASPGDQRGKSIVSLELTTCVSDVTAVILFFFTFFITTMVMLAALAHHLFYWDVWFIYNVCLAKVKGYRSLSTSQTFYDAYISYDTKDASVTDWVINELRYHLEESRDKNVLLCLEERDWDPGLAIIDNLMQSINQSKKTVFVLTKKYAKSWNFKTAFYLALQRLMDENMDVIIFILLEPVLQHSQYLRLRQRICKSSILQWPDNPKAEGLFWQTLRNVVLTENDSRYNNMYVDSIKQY
Nature of the data set: HEK293-Blue-hTLR-8 cells assay. The data set is classed as cell-based. The following applies: HEK293-Blue-hTLR8 cells, R848 stimulation, 20 hrs, SEAP reporter; read-out: HEK/hTLR8 IC50. Here is the method: The following tests were carried out in order to determine the activity of the compounds of formula (I) and (Ia) in HEK293-Blue-hTLR-7/8/9 cells assay.
HEK293-Blue-hTLR-8 cells assay:
A stable HEK293-Blue-hTLR-8 cell line was purchased from InvivoGen (Cat. #: hkb-htlr8, San Diego, Calif., USA). These cells were originally designed for studying the stimulation of human TLR8 by monitoring the activation of NE-κB. A SEAP (secreted embryonic alkaline phosphatase) reporter gene was placed under the control of the IFN-β minimal promoter fused to five NE-κB and AP-1-binding sites. The SEAP was induced by activating NE-κB and AP-1 via stimulating HEK-Blue hTLR8 cells with TLR8 ligands. Therefore the reporter expression was declined by TLR8 antagonist under the stimulation of a ligand, such as R848, for incubation of 20 hrs. The cell culture supernatant SEAP reporter activity was determined using QUANTI-Blue™ kit (Cat. #: rep-qbl, Invivogen, San Diego, Ca, USA) at a wavelength of 640 nm, a detection medium that turns purple or blue in the presence of alkaline phosphatase.
HEK293-Blue-hTLR8 cells were incubated at a density of 250,000-450,000 cells/mL in a volume of 170 μL in a 96-well plate in Dulbecco's Modified Eagle's medium (DMEM) containing 4.5 g/L glucose, 50 U/mL penicillin, […], […], 2 mM L-glutamine, 10% (v/v) heat-inactivated fetal bovine serum with addition of 20 μL test compound in a serial dilution in the presence of final DMSO at 1% and 10 μL of 60 uM R848 in above DMEM, perform incubation under 37° C. in a CO2 incubator for 20 hrs. Then 20 μL of the supernatant from each well was incubated with 180 μL Quanti-blue substrate solution at 37° C. for 2 hrs and the absorbance was read at 620˜655 nm using a spectrophotometer. The signalling pathway that TLR8 activation leads to downstream NE-κB activation has been widely accepted, and therefore similar reporter assay was modified for evaluating TLR8 antagonist.

The target in another data set is T2, CYP2D6 (Homo sapiens, UniProt P10635).
T2 construct: tissue BD-Gentest 452117; host or cells: human liver microsomes
T2 sequence (P10635 whole entry): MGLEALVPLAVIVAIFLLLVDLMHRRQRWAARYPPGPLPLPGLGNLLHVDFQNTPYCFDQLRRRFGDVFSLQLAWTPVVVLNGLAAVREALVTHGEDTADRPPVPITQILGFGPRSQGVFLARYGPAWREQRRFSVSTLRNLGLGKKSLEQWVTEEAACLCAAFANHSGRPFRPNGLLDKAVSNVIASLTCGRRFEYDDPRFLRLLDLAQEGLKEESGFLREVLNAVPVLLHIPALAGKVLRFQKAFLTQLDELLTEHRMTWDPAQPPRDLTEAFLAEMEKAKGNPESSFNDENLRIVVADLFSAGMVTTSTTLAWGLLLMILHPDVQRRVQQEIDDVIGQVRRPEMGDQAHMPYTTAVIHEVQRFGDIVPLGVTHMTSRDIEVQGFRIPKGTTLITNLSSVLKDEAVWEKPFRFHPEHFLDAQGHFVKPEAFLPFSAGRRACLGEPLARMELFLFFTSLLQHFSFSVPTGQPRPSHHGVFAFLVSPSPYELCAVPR
Description: CYP inhibition assay in human liver microsome. It is filed as in vitro ADME. The following applies: human liver microsomes, probe dextromethorphan, dextromethorphan substrate, percentage inhibition <0: not or weak inhibitor, read-out: CYP 2D6 inhibition %@10 μM. Here is the method: The compounds would be desirable to have minimal DDI liabilities. Therefore, the effects of compounds of formula (I) or (Ia) on CYP2D6 are determined.
This is a high throughput screening assay used for assessment of reversible inhibition of CYP2D6 activity of test compounds in human liver microsome (HLM) in early discovery stage.
10 mM DMSO stock solutions of test compounds were diluted in DMSO to generate 2 mM intermediate stock solution. 250 nL of intermediate stock solution were transferred in duplicate into 3 separate 384 well microtitre plates (assay-ready plates). A mixture of HLM and each substrate was made up. 45 μL of HLM substrate mix was then transferred to each well of an assay ready plate and mixed. The negative (solvent) and positive control (standard inhibitor for CYP 2D6) were included in each assay ready plate. The assay ready plate was warmed to 37° C. in an incubator over 10 minutes. 5 μL pre-warmed NADPH regenerating system was added to each incubation well to start the reaction. Final incubation volume was 50 μL. The assay plate then was placed back in the 37° C. incubator. After 10 minutes incubation, incubates were quenched by addition of 50 μL 100% acetonitrile containing internal standards (20 ng/mL D3-Dextrorphan). The supernatants were collected for RapidFire/MS/MS analysis.
RapidFire online solid phase extraction/sample injection system (Agilent) coupled with API4000 triple quadrupole mass spectrometer (AB Sciex) were used for sample analysis. The mobile phase composed of acetonitrile and water supplemented with 0.1% formic acid. A C4 solid phase extraction cartridge is used for sample separation. MS detection is achieved in positive ion MRM mode.
Data analysis Peak areas for substrate, metabolite and internal standard are determined using the RapidFire integrator software (version 3.6.12009.12296). Peak area ratios (PAR) of metabolite and internal standard (stable-labelled metabolite) are then calculated. The measurement window for each experiment is then defined:
PAR (0% activity), average PAR for all incubations containing concentrated inhibitor; Par (100% activity), average PAR for all incubations containing no inhibitor (DMSO controls);
% Activity (test inhibitor)=
=[PAR(test inhibitor)-PAR(0% activity)]/[PAR(100% activity)-PAR(0% activity)];
% Inhibition (test inhibitor)=100-% Activity (test inhibitor).
A general note: Liver microsomes are a subcellular fraction often used to study metabolism.

Bounds are passed on as bounds.

For orientation: inhibition means the drop in the measured response relative to a control, in per cent. With `Cc1cc(N2CCC[C@@H](N(C)C[C@H]3CN(c4ccc(C#N)c5ncccc45)C[C@@H](C)O3)C2)cc(CO)n1` [Example 35], at human TLR8, the IC50 was 0.009 µM. Further, on CYP2D6, the inhibition at 10 min, 10 μM is -4%.

Take `Cc1cc(N2CC3(CN(C[C@H]4CN(c5ccc(C#N)c6ncccc56)C[C@@H](C)O4)C3)C2)cc(CO)n1` [Example 1, 5-[(2S,6R)-2-[[2-[2-(hydroxymethyl)-6-methyl-4-pyridyl]-2,6-diazaspiro[3.3]heptan-6-yl]methyl]-6-methyl-morpholin-4-yl]quinoline-8-carbonitrile]: at human TLR8, the IC50 came to 0.081 µM. For the same molecule, the inhibition at 10 min, 10 μM at CYP2D6 was determined as 6%.

`Cc1cc(N2CC(N(C)C[C@H]3CN(c4ccc(C#N)c5ncccc45)C[C@@H](C)O3)C2)cc(CO)n1` [Example 37]: the IC50 on human TLR8 is below 0.003 µM.

Consider `Cc1cc(N2CCN(C[C@H]3CN(c4ccc(C#N)c5ncccc45)C[C@@H](C)O3)[C@H](C)C2)cc(CO)n1` [Example 4B], for which the IC50 at human TLR8 turned out to be 0.005 µM.

For the molecule `Cc1cc(N2CCOC3CN(CC4CN(c5ccc(C#N)c6ncccc56)CC(C)O4)CC32)cc(C)n1` (single isomer, unassigned) [Example 17B], the IC50 at human TLR8 came out at 0.003 µM. Moreover, the inhibition at 10 min, 10 μM on CYP2D6 was determined as 5%.

For the molecule `Cc1cc(N2CCC23CN(C[C@H]2CN(c4ccc(C#N)c5ncccc45)C[C@@H](C)O2)C3)cc(CO)n1` [Example 12], the IC50 at human TLR8 was determined as 0.012 µM. Also, at CYP2D6, the inhibition at 10 min, 10 μM is -3%.

Take `Cc1cc(N2CC(NC[C@H]3CN(c4ccc(C#N)c5ncccc45)C[C@@H](C)O3)CC(F)(F)C2)cc(CO)n1` (stereo partly shown) [Example 36]: on human TLR8, the IC50 was 0.012 µM.

With `C[C@@H]1CN(c2ccc(C#N)c3ncccc23)C[C@H](CNC2CCN(c3ccnc(N)c3)CC2)O1` [Example 20, 5-[(2S,6R)-2-[[[1-(2-amino-4-pyridyl)-4-piperidyl]amino]methyl]-6-methyl-morpholin-4-yl]quinoline-8-carbonitrile], the IC50 at human TLR8 was 0.07 µM.

As for `Cc1cc(NC2CCN(C[C@H]3CN(c4ccc(C#N)c5ncccc45)C[C@@H](C)O3)CC2)cc(CO)n1` [Example 5], the IC50 at human TLR8 came out at 0.033 µM. Moreover, the inhibition at 10 min, 10 μM at CYP2D6 was 7.5%.

Take `Cc1cc(N2CCOC3(CN(C[C@H]4CN(c5ccc(C#N)c6ncccc56)C[C@@H](C)O4)C3)C2)ccn1` [Example 16]: at human TLR8, the IC50 was below 0.003 µM. The inhibition at 10 min, 10 μM on CYP2D6 is 5%.

For the molecule `Cc1cc(N2CC[C@H](NC[C@H]3CN(c4ccc(C#N)c5ncccc45)C[C@@H](C)O3)C2)cc(CO)n1` [Example 29], at human TLR8, the IC50 turned out to be 0.025 µM.

As to `Cc1cc(N2CC(NC[C@H]3CN(c4ccc(C#N)c5ncccc45)C[C@@H](C)O3)C2)cc(CO)n1` [Example 30], the IC50 on human TLR8 was found to be 0.014 µM. Further, the inhibition at 10 min, 10 μM at CYP2D6 was found to be 8.5%.

For the molecule `Cc1cc(N2CCC3(CN(C[C@H]4CN(c5ccc(C#N)c6ncccc56)C[C@@H](C)O4)C3)C2)cc(C)n1` [Example 9], the IC50 on human TLR8 was found to be 0.051 µM. The inhibition at 10 min, 10 μM at CYP2D6 was -5%.

Take `Cc1cc(N2CC[C@H](F)[C@H](NC[C@H]3CN(c4ccc(C#N)c5ncccc45)C[C@@H](C)O3)C2)cc(CO)n1` [Example 33]: the IC50 on human TLR8 was 0.007 µM.

On to `Cc1cc(N2CC[C@@H](NC[C@H]3CN(c4ccc(C#N)c5ncccc45)C[C@@H](C)O3)C2)cc(CO)n1` [Example 28], for which the IC50 at human TLR8 amounted to 0.032 µM.

Regarding `Cc1cc(N2CCN(C[C@H]3CN(c4ccc(C#N)c5ncccc45)C[C@@H](C)O3)[C@@H](C)C2)cc(CO)n1` [Example 4A], the IC50 on human TLR8 turned out to be 0.007 µM.

Turning to `Cc1cc(N2CC[C@@H](F)[C@H](NC[C@H]3CN(c4ccc(C#N)c5ncccc45)C[C@@H](C)O3)C2)cc(CO)n1` [Example 34], the IC50 on human TLR8 was determined as 0.004 µM.

Regarding `Cc1cc(N2CCOC3CN(CC4CN(c5ccc(C#N)c6ncccc56)CC(C)O4)CC32)cc(C)n1` (single isomer, unassigned) [Example 17A], the IC50 at human TLR8 was below 0.003 µM.

As for `Cc1cc(N2CCC(NC[C@H]3CN(c4ccc(C#N)c5ncccc45)C[C@@H](C)O3)CC2)cc(CO)n1` [Example 23], at human TLR8, the IC50 turned out to be 0.041 µM.

With `C[C@@H]1CN(c2ccc(C#N)c3ncccc23)C[C@H](CN2CC3(C2)CN(c2ccnc(C(C)(C)O)c2)C3)O1` [Example 48, 5-[(2S,6R)-2[[2-[2-(1-hydroxy-1-methyl-ethyl)-4-pyridyl]-2,6-diazaspiro[3.3]heptan-6-yl]methyl]-6-methyl-morpholin-4-yl]quinoline-8-carbonitrile], the IC50 at human TLR8 is 0.198 µM.

Turning to `C[C@@H]1CN(c2ccc(C#N)c3ncccc23)C[C@H](CN2CCN(c3ccnc(N)c3)CC2)O1` [Example 19, 5-[(2S,6R)-2-[[4-(2-amino-4-pyridyl)piperazin-1-yl]methyl]-6-methyl-morpholin-4-yl]quinoline-8-carbonitrile], at human TLR8, the IC50 is 0.003 µM.

In the case of `C[C@@H]1CN(c2ccc(C#N)c3ncccc23)C[C@H](CN2CC3(C2)CN(c2ccnc(C4CC4)c2)C3)O1` [Example 49, 5-[(2S,6R)-2[[2-(2-cyclopropyl-4-pyridyl)-2,6-diazaspiro[3.3]heptan-6-yl]methyl]-6-methyl-morpholin-4-yl]quinoline-8-carbonitrile], the IC50 on human TLR8 was determined as 0.02 µM.

In the case of `Cc1cc(N2CCC23CN(C[C@H]2CN(c4ccc(C#N)c5ncccc45)C[C@@H](C)O2)C3)cc(C)n1` [Example 8], at human TLR8, the IC50 was 0.007 µM.

(Values after patent US20210269451A1, “PYRIDINYL HETEROCYCLYL COMPOUNDS FOR THE TREATMENT OF AUTOIMMUNE DISEASE” (Hoffmann-La Roche Inc., priority 2018, published 2021).)
